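Five compound concentrations were applied to cells in 96-well plates for 48 hours; endpoints were derived by simple linear interpolation of the resulting dose-response curve. Abbreviation: GI50, concentration required for 50% inhibition of growth.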 Activity calls are given as the source filed them. Cut-off read from the data, not from the text of the source: active = GI50 up to about 1.1 µM and inactive = higher.
Columns and labels:
Experiment in all cases: NCI tumour cell line growth inhibition, 48 h
Malme-3M = tested on: Malme-3M
NCI-H23 = tested on: NCI-H23
SK-MEL-5 = tested on: SK-MEL-5
SF-268 = tested on: SF-268
SN12C = tested on: SN12C
A549 = tested on: A549
HT-29 = tested on: HT-29
CCRF-CEM = tested on: CCRF-CEM
U-251 = tested on: U-251
A498 = tested on: A498
HOP-92 = tested on: HOP-92
KM12 = tested on: KM12
MCF7 = tested on: MCF7
ACHN = tested on: ACHN
SW-620 = tested on: SW-620
T47D = tested on: T47D
UO-31 = tested on: UO-31
M14 = tested on: M14
NCI-H522 = tested on: NCI-H522
MDA-N = tested on: MDA-N

| Structure (SMILES) | GI50 (Malme-3M) | GI50 (NCI-H23) | GI50 (SK-MEL-5) | GI50 (SF-268) | GI50 (SN12C) | GI50 (A549) | GI50 (HT-29) | GI50 (CCRF-CEM) | GI50 (U-251) | GI50 (A498) | GI50 (HOP-92) | GI50 (KM12) | GI50 (MCF7) | GI50 (ACHN) | GI50 (SW-620) | GI50 (T47D) | GI50 (UO-31) | GI50 (M14) | GI50 (NCI-H522) | GI50 (MDA-N) |
| --- | --- | --- | --- | --- | --- | --- | --- | --- | --- | --- | --- | --- | --- | --- | --- | --- | --- | --- | --- | --- |
| CN(Cc1ccccc1)C(=S)S [SODIUM BENZYL(METHYL)CARBAMODITHIOATE] | 38.7 µM (inactive) | 45.1 µM (inactive) | 48.3 µM (inactive) | 53.3 µM (inactive) | 52.4 µM (inactive) | 33.5 µM (inactive) | 37.5 µM (inactive) | 16.5 µM (inactive) | 38 µM (inactive) | > 100 µM (inactive) | 68.2 µM (inactive) | 56.1 µM (inactive) | 45.5 µM (inactive) | 53.5 µM (inactive) | 51.3 µM (inactive) | 78.7 µM (inactive) | 27.2 µM (inactive) | 23.3 µM (inactive) | 27.8 µM (inactive) | 70.6 µM (inactive) |
| COc1cnc2cc(C(=O)O)c3ccccc3c2c1 | > 100 µM (inactive) | > 100 µM (inactive) | > 100 µM (inactive) | > 100 µM (inactive) | > 100 µM (inactive) | > 100 µM (inactive) | > 100 µM (inactive) | > 100 µM (inactive) | > 100 µM (inactive) | > 100 µM (inactive) | > 100 µM (inactive) | > 100 µM (inactive) | > 100 µM (inactive) | > 100 µM (inactive) | > 100 µM (inactive) | > 100 µM (inactive) | > 100 µM (inactive) | 92.5 µM (inactive) | > 100 µM (inactive) | > 100 µM (inactive) |
| COc1ccc(NC(=O)C(=O)Cc2nc3ccc(C(=O)c4ccccc4)cc3nc2O)c([N+](=O)[O-])c1 | 53.6 µM (inactive) | 20.5 µM (inactive) | 22.6 µM (inactive) | 34.8 µM (inactive) | 35.7 µM (inactive) | 47.1 µM (inactive) | 14.9 µM (inactive) | 28.2 µM (inactive) | 41.9 µM (inactive) | 16.6 µM (inactive) | 10.8 µM (inactive) | 6.93 µM (inactive) | 41.6 µM (inactive) | 43.6 µM (inactive) | 19.1 µM (inactive) | 17.2 µM (inactive) | 18.2 µM (inactive) | 35.6 µM (inactive) | 12.8 µM (inactive) | 23.4 µM (inactive) |
| CS(=O)(=O)N1CC(CCl)c2ccc(NO)cc21 (stereo not drawn) | 19.1 µM (inactive) | 5.06 µM (inactive) | 12.3 µM (inactive) | 5.22 µM (inactive) | 15.3 µM (inactive) | 35.2 µM (inactive) | 14.3 µM (inactive) | 1.83 µM (inactive) | 11.4 µM (inactive) | 15.2 µM (inactive) | 14.4 µM (inactive) | 14.6 µM (inactive) | 8.3 µM (inactive) | 7.94 µM (inactive) | 12.6 µM (inactive) | 21.9 µM (inactive) | 10.3 µM (inactive) | 16.2 µM (inactive) | 4.17 µM (inactive) | 16.9 µM (inactive) |
| CC(=O)O[C@H]1CC(C)(C)C(=C=C/C(C)=C/C=C/C=C/C=C(C)/C=C2C=C(/C=C/[C@@]34O[C@]3(C)C[C@@H](O)CC4(C)C)C(=O)O/2)[C@](C)(O)C1 | 16.7 µM (inactive) | 5.14 µM (inactive) | 8.43 µM (inactive) | 15 µM (inactive) | 11.7 µM (inactive) | 11.5 µM (inactive) | 21.2 µM (inactive) | 2.94 µM (inactive) | 10.7 µM (inactive) | 24.7 µM (inactive) | 12.6 µM (inactive) | 5.4 µM (inactive) | 3.81 µM (inactive) | 19.3 µM (inactive) | 19.6 µM (inactive) | 4.27 µM (inactive) | 15.8 µM (inactive) | 11.7 µM (inactive) | 3.99 µM (inactive) | 12.7 µM (inactive) |
| COc1ccc(NC(=S)N/N=C(\c2ccccc2)c2ccccn2)cc1 | 0.172 µM (active) | < 0.01 µM (active) | 0.0432 µM (active) | 0.123 µM (active) | 0.052 µM (active) | 0.128 µM (active) | < 0.0118 µM (active) | 0.01 µM (active) | < 0.0198 µM (active) | 0.587 µM (active) | 0.224 µM (active) | 0.0479 µM (active) | < 0.01 µM (active) | < 0.027 µM (active) | < 0.01 µM (active) | < 0.0317 µM (active) | 0.132 µM (active) | 0.0117 µM (active) | 0.0552 µM (active) | 0.263 µM (active) |
| CC(C)(CCc1nc2ccccc2[nH]1)C(=O)O | > 100 µM (inactive) | > 100 µM (inactive) | > 100 µM (inactive) | > 100 µM (inactive) | > 100 µM (inactive) | > 100 µM (inactive) | > 100 µM (inactive) | > 100 µM (inactive) | > 100 µM (inactive) | > 49.2 µM (inactive) | > 100 µM (inactive) | > 100 µM (inactive) | > 100 µM (inactive) | > 100 µM (inactive) | > 100 µM (inactive) | > 100 µM (inactive) | > 100 µM (inactive) | > 100 µM (inactive) | > 100 µM (inactive) | > 100 µM (inactive) |
| O=C1NC(NNc2ccccc2)=N/C1=C\c1ccco1 | 28.1 µM (inactive) | 18.8 µM (inactive) | 25.5 µM (inactive) | 22.4 µM (inactive) | 22.1 µM (inactive) | 46.5 µM (inactive) | 18.6 µM (inactive) | 4.61 µM (inactive) | 17.7 µM (inactive) | 46.8 µM (inactive) | 14.8 µM (inactive) | 11.2 µM (inactive) | 15.5 µM (inactive) | 13.2 µM (inactive) | 18.1 µM (inactive) | 14 µM (inactive) | 27.8 µM (inactive) | 8.47 µM (inactive) | 12.9 µM (inactive) | 26.9 µM (inactive) |
| C=C(c1ccccc1)c1ccccc1-c1cc(-c2ccccc2)cc(-c2ccccc2)n1 | > 100 µM (inactive) | > 100 µM (inactive) | 78.3 µM (inactive) | > 100 µM (inactive) | > 100 µM (inactive) | > 100 µM (inactive) | 99.5 µM (inactive) | 84.9 µM (inactive) | > 100 µM (inactive) | > 100 µM (inactive) | > 100 µM (inactive) | > 100 µM (inactive) | > 100 µM (inactive) | > 100 µM (inactive) | > 100 µM (inactive) | 9.08 µM (inactive) | > 100 µM (inactive) | > 100 µM (inactive) | 28.4 µM (inactive) | > 100 µM (inactive) |
| Cc1nnc(N)nc1C/C=C/C(C)Sc1ccc(Cl)cc1 (stereo not drawn) | 13.2 µM (inactive) | 5.47 µM (inactive) | 6.08 µM (inactive) | 3.78 µM (inactive) | 11.1 µM (inactive) | 7 µM (inactive) | 16 µM (inactive) | 2.33 µM (inactive) | 8.93 µM (inactive) | 6.32 µM (inactive) | 11.4 µM (inactive) | 4.7 µM (inactive) | 5.28 µM (inactive) | 7.46 µM (inactive) | 9.04 µM (inactive) | 8.07 µM (inactive) | 3.49 µM (inactive) | 7.69 µM (inactive) | 4 µM (inactive) | 14.4 µM (inactive) |
| O=C(NCCc1ccccc1)c1cc(/C=C/c2cc(O)ccc2O)ccc1O | 2.22 µM (inactive) | 4.95 µM (inactive) | 2.74 µM (inactive) | 3.19 µM (inactive) | 4.92 µM (inactive) | 10.3 µM (inactive) | 18.3 µM (inactive) | 2.11 µM (inactive) | 2.36 µM (inactive) | 4.4 µM (inactive) | 1.87 µM (inactive) | 6.05 µM (inactive) | 2.62 µM (inactive) | 2.2 µM (inactive) | 5.71 µM (inactive) | 1.92 µM (inactive) | 1.7 µM (inactive) | 5.56 µM (inactive) | 1.64 µM (inactive) | 2.96 µM (inactive) |
| CCOC(=O)C1C(c2ccc3c(c2)OCO3)c2c(n[nH]c2O)CC1(C)O (stereo not drawn) | 56.1 µM (inactive) | > 100 µM (inactive) | > 100 µM (inactive) | > 100 µM (inactive) | > 100 µM (inactive) | > 100 µM (inactive) | > 100 µM (inactive) | > 100 µM (inactive) | > 100 µM (inactive) | > 100 µM (inactive) | > 100 µM (inactive) | > 100 µM (inactive) | > 100 µM (inactive) | > 100 µM (inactive) | > 100 µM (inactive) | > 100 µM (inactive) | > 100 µM (inactive) | > 100 µM (inactive) | > 100 µM (inactive) | > 100 µM (inactive) |
| CCOc1ccc2nc(NC(=O)C(=O)C(c3cnc4ccccc4n3)[N+](=O)[O-])sc2c1 (stereo not drawn) | > 100 µM (inactive) | 74.5 µM (inactive) | > 100 µM (inactive) | > 100 µM (inactive) | > 100 µM (inactive) | > 100 µM (inactive) | > 100 µM (inactive) | 44.8 µM (inactive) |  | > 100 µM (inactive) | > 100 µM (inactive) | > 100 µM (inactive) | > 100 µM (inactive) | 43.8 µM (inactive) |  | > 100 µM (inactive) | 77.3 µM (inactive) | > 100 µM (inactive) | 45.4 µM (inactive) | > 100 µM (inactive) |
| COc1cc(/C=C2\CCc3cc(OC)c(OC)cc3C2=O)cc(OC)c1 | 10 µM (inactive) | 10.9 µM (inactive) | 3.87 µM (inactive) | 41.2 µM (inactive) | 5 µM (inactive) | 5.2 µM (inactive) | 3.49 µM (inactive) | 4.08 µM (inactive) | 6.28 µM (inactive) | 6.82 µM (inactive) | 24.3 µM (inactive) | 4.88 µM (inactive) | 4.2 µM (inactive) | 30.3 µM (inactive) | 6.19 µM (inactive) | 5.9 µM (inactive) | 20.5 µM (inactive) | 5.47 µM (inactive) | 5.93 µM (inactive) | 1.45 µM (inactive) |
